Results as given in US11806393B2, “Flavivirus peptide sequences, epitopes, and methods and uses thereof” (priority 2017, dated 2023).

Experiments:
CD3+CD8+ T cells = assay: IFNγ ICS, ZIKV-infected Ifnar-/- HLA-B*0702 transgenic mice; assay type: cell-based, mouse; conditions: for % IFNγ+ CD8+ T cells, FSS13025 / % IFNγ+ CD8+ T cells, MR766: HLA-B*0702 mice; for % IFNγ+ CD8+ T cells, FSS13025: 7 days after ZIKV FSS13025, ICS; for % IFNγ+ CD8+ T cells, MR766: 7 days after ZIKV MR766, ICS; for simultaneous IFNγ and TNFα production by peptide-stimulated CD8+ T cells: ZIKV MR766-infected mice
Experimental: Two ZIKV strains, MR766 (Uganda, 1947) and FSS13025 (Cambodia, 2010), were obtained from the World Reference Center for Emerging Viruses and Arboviruses (WRCEVA). The mouse-adapted DENV2 strain S221 is a triple-plaque purified clone derived from DENV2 D2S1038. Both ZIKV and DENV2 were amplified in C6/36 mosquito cells, and viral titers were measured using baby hamster kidney (BHK)-21 cell-based focus forming assay (FFA). For epitope screening, 5-week old mice (female or male) were infected retro-orbitally (R.O.) with either 1×102 FFU of ZIKV FSS13025 or ZIKV MR766, or 2×10^4 FFU of DENV2 S221 in 200 μl 10% FBS/PBS. Seven days after infection, CD8^+ T cells were isolated from splenocytes and used for ELISPOT assay, while the splenocytes were directly used for ICS assay. Additionally, 5-week old mice were inoculated I.P. with 2×10^3 FFU of DENV2 S221 for 4 weeks.
(§1) Spleens were harvested from virus-infected, mock-immunized, or peptide-immunized mice. 1×10^6 splenocytes were plated in each well of 96-well U-bottom plates and stimulated with individual peptide (10 μg crude peptide or 1 μg pure peptide per well) for 6 hours. Five hours before the end of incubation, Brefeldin A (GolgiPlug; BD Biosciences) and PE-conjugated anti CD107a mAb (clone 1D4B, eBioscience) were added to the cells. Splenocytes stimulated with PMA-ionomycin were used as the positive control, while cells without any stimulation were the negative control. […] Samples were run using an LSR™ II (BD Biosciences) and analyzed using FLOWJO™ software X 10.0.7 (Tree Star, Ashland, Oreg.).
Data represent the average of two independent experiments and are expressed as mean±SEM. *, P<0.05; **, P<0.01; Two-tailed Mann-Whitney test. P/I denotes PMA/ionomycin.

CD44+CD62L- CD8+ T cells = assay: ICS, peptide-immunized Ifnar-/- HLA-B*0702 mice challenged with ZIKV; assay type: cell-based, mouse; conditions: mice immunized with the 4 ZIKV/DENV cross-reactive peptides, day 3 after ZIKV challenge
From the text: Two HLA-B*0702-binding ZIKV-specific peptides (FSS-NS2A133-141(SEQ ID NO: 41) and FSS/MR766-NS2B68-75 (SEQ ID NO: 45)) and four ZIKV/DENV cross-reactive peptides (FSS/MR766-NS4B426-435 (SEQ ID NO: 60), FSS/MR766-NS2A75-84 (SEQ ID NO: 39), FSS/MR766-NS3206-215 (SEQ ID NO: 47), and FSS/MR766-NS3574-582 (SEQ ID NO: 52)) were chosen for synthesis. Five HLA-A*0101-binding peptides (FSS/MR-E159-167 (SEQ ID NO: 70), FSS/MR-E195-203 (SEQ ID NO: 71), FSS/MR-NS123-31 (SEQ ID NO: 74), FSS/MR-NS4B231-239 (SEQ ID NO: 77), and FSS/MR-NS5509-517 (SEQ ID NO: 79)) were chosen for synthesis. Mice (both female and male; 5-6 weeks of age) were immunized subcutaneously with a mixture of HCV helper peptide (100 μg/mouse) and 3 or 4 HLA-B*0702-binding peptides (50 μg/peptide/mouse) emulsified in Complete Freund's Adjuvant (CFA). Mock group mice received the same immunization strategy but without any ZIKV-specific or ZIKV/DENV cross-reactive peptide. On the 21st day, mice were boosted with the same peptide mixtures emulsified in Incomplete Freund's Adjuvant (IFA). […] Three days post ZIKV infection mice were sacrificed, and serum and spleen were harvested. The splenocytes were used for ICS assay. After cardiac perfusion with PBS, brain was harvested. The levels of infectious ZIKV in serum and brain were measured using FFA.
as §1
Peptide groups received corresponding peptide immunizations as described in Materials and Methods. […] CD3^+CD8^+CD44^+CD62L− T cells were gated and the percentages of IFNγ^+ and/or TNFα^+ cells in a representative mouse from mock (FIG. 12A) and peptide (FIG. 12B) groups were determined by ICS. The levels of infectious ZIKV in sera and brains were measured via FFA. Data were expressed as mean±SEM. *, P<0.05; **, P<0.01; ***, P<0.001. Two-tailed Mann-Whitney test.

| Sequence | % IFNγ+ CD8+ T cells, FSS13025 (CD3+CD8+ T cells) | % IFNγ+ CD8+ T cells, MR766 (CD3+CD8+ T cells) | simultaneous IFNγ and TNFα production by peptide-stimulated CD8+ T cells (CD3+CD8+ T cells) | percentage of epitope-specific cells among antigen experienced (CD44+CD62L-) CD8+ T cells (CD44+CD62L- CD8+ T cells) [%] |
| --- | --- | --- | --- | --- |
| KPRWMDARV [FSS/MR-NS3574-582] | (0.79%) | (1.9%) | stimulated simultaneous production of IFNγ and TNFα | 0.84±0.39 |
| RPALLVSFIF [FSS/MR-NS2A75-84] | (0.53%) | (2.04%) | stimulated simultaneous production of IFNγ and TNFα | 3.27±1.91 |
